Reference: patent US12344603B2 (Genentech, Inc., priority 2020, dated 2025)
Structures can show the parent of a compound that is named as a salt.

Biological target: IRE1α (Homo sapiens (Human), UniProt O75460, D688N)
Test: IRE1α TR-FRET competition binding assay (IRE1α HTRF)
Settings: TR-FRET competition binding to kinase domain of IRE1α
How it was run: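 Kinase domain (0.25 nM) pre-bound to 2 nM Eu anti-His antibody for 1 h at 4° C in HEPES pH 7.5/MgCl2/Brij 35/DTT/gamma globulin buffer, then mixed with compounds and 2 nM Alexa 647 ATP-competitive probe. 1 h at room temperature; probe displacement read as TR-FRET (Ex 347 nm, Em 665/615 nm).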

Chain of IRE1α (O75460 547-977 D688N): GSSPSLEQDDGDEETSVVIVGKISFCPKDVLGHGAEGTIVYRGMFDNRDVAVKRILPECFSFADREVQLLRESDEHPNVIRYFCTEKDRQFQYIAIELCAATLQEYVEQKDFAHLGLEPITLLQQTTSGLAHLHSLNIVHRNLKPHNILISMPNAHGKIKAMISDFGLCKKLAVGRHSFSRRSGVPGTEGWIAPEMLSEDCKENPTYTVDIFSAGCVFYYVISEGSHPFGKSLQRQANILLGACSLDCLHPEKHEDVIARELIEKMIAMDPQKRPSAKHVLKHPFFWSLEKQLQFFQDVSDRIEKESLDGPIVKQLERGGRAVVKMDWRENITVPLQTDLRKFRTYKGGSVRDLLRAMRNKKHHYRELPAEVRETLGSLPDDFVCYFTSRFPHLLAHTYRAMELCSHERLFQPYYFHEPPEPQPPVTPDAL

Row | SMILES | IC50 [nM]
1 | CC(C)n1c(=O)c(-c2ccc(NS(=O)(=O)CC3CCCCC3(F)F)c(F)c2)nc2cnc(N[C@H]3CC[C@H](N(C)C)CC3)nc21 (mixture of isomers) [Example 272, 1-(2,2-Difluorocyclohexyl)-N-[4-[2-[[4-(dimethylamino)cyclohexyl]amino]-8-isopropyl-7-oxo-pteridin-6-yl]-2-fluoro-phenyl]methanesulfonamide] | 0.2
2 | CC(C)n1c(=O)c(-c2cc(F)c(NS(=O)(=O)Cc3ccccc3C#N)c(F)c2F)cc2cnc(N[C@@H]3CNC[C@@H](F)C3)nc21 [Compound 32, 1-(2-Cyanophenyl)-N-(2,3,6-trifluoro-4-(2-(((3S,5S)-5-fluoropiperidin-3-yl)amino)-8-isopropyl-7-oxo-7,8-dihydropyrido[2,3-d]pyrimidin-6-yl)phenyl)methanesulfonamide] | 0.34
3 | CC(C)n1c(=O)c(-c2ccc(NS(=O)(=O)Cc3ccccc3)c(F)c2)nc2cnc(N[C@H]3CC[C@H](N(C)C)CC3)nc21 [Compound 68, N-(4-(2-(((1r,4r)-4-(Dimethylamino)cyclohexyl)amino)-8-isopropyl-7-oxo-7,8-dihydropteridin-6-yl)-2-fluorophenyl)-1-phenylmethanesulfonamide] | 0.13
4 | CC(C)n1c(=O)c(-c2cc(F)c(NS(=O)(=O)CCC(F)(F)F)c(F)c2)nc2cnc(N[C@H]3CC[C@H](N(C)C)[C@@H](F)C3)nc21 (stereo in doubt) [Compound 168A, N-(4-(2-((4-(Dimethylamino)-3-fluorocyclohexyl)amino)-8-isopropyl-7-oxo-7,8-dihydropteridin-6-yl)-2,6-difluorophenyl)-3,3,3-trifluoropropane-1-sulfonamide] | 0.24
5 | CC(C)n1c(=O)c(-c2cc(F)c(NS(=O)(=O)CC3CC(F)(F)C3)c(F)c2)nc2cnc(N[C@H]3CC[C@H](N(C)C)CC3)nc21 [Example 249, 1-(3,3-Difluorocyclobutyl)-N-[4-[2-[[4-(dimethylamino)cyclohexyl]amino]-8-isopropyl-7-oxo-pteridin-6-yl]-2,6-difluoro-phenyl]methanesulfonamide] | 0.2
6 | Cc1ccc(CS(=O)(=O)Nc2c(F)cc(-c3cc4cnc(N[C@H]5CC[C@H](N(C)C)CC5)nc4n(C(C)C)c3=O)c(F)c2F)c(C#N)c1 [Compound 113, 1-(2-Cyano-4-methylphenyl)-N-(4-(2-(((1r,4r)-4-(dimethylamino)cyclohexyl)amino)-8-isopropyl-7-oxo-7,8-dihydropyrido[2,3-d]pyrimidin-6-yl)-2,3,6-trifluorophenyl)methanesulfonamide] | 0.22
7 | CC(C)n1c(=O)c(-c2ccc(NS(=O)(=O)c3ccccc3Cl)nc2)nc2cnc(N[C@H]3CC[C@H](N(C)C)CC3)nc21 [Compound 178, 2-Chloro-N-(5-(2-(((1r,4r)-4-(dimethylamino)cyclohexyl)amino)-8-isopropyl-7-oxo-7,8-dihydropteridin-6-yl)pyridin-2-yl)benzenesulfonamide] | 0.26
8 | CC(C)n1c(=O)c(-c2ccc(NS(=O)(=O)CC3CCCC3)c(F)c2)nc2cnc(N[C@H]3CC[C@H](N(C)C)CC3)nc21 [Example 267, 1-Cyclopentyl-N-[4-[2-[[4-(dimethylamino)cyclohexyl]amino]-8-isopropyl-7-oxo-pteridin-6-yl]-2-fluoro-phenyl]methanesulfonamide] | 0.1
9 | Cc1nc(NS(=O)(=O)c2ccccc2Cl)ccc1-c1cc2cnc(N[C@H]3CC[C@H](N(C)C)CC3)nc2n(C(C)C)c1=O [Compound 135, 2-Chloro-N-(5-(2-(((1r,4r)-4-(dimethylamino)cyclohexyl)amino)-8-isopropyl-7-oxo-7,8-dihydropyrido[2,3-d]pyrimidin-6-yl)-6-methylpyridin-2-yl)benzenesulfonamide] | 0.43
10 | CC(C)n1c(=O)c(-c2ccc(NS(=O)(=O)CCC(F)(F)F)c(F)c2)cc2cnc(N[C@H]3CCC[C@@H](N(C)C)C3)nc21 [Compound 114, N-(4-(2-(((1S,3R)-3-(Dimethylamino)cyclohexyl)amino)-8-isopropyl-7-oxo-7,8-dihydropyrido[2,3-d]pyrimidin-6-yl)-2-fluorophenyl)-3,3,3-trifluoropropane-1-sulfonamide] | 180
11 | CC(C)n1c(=O)c(-c2cc(F)c(NS(=O)(=O)Cc3ccccc3F)c(F)c2F)cc2cnc(N[C@@H]3CNC[C@@H](F)C3)nc21 [Compound 86, 1-(2-Fluorophenyl)-N-(2,3,6-trifluoro-4-(2-(((3S,5S)-5-fluoropiperidin-3-yl)amino)-8-isopropyl-7-oxo-7,8-dihydropyrido[2,3-d]pyrimidin-6-yl)phenyl)methanesulfonamide] | 0.16
12 | CC(C)n1c(=O)c(-c2ccc(NS(=O)(=O)c3ccccc3C#N)c(F)c2)nc2cnc(N[C@H]3CC[C@H](N(C)C)CC3)nc21 [Compound 190, 2-Cyano-N-(4-(2-(((1r,4r)-4-(dimethylamino)cyclohexyl)amino)-8-isopropyl-7-oxo-7,8-dihydropteridin-6-yl)-2-fluorophenyl)benzenesulfonamide] | 0.18
13 | CC(C)n1c(=O)c(-c2ccc(NS(=O)(=O)CCC(C)(F)F)c(F)c2)cc2cnc(N[C@H]3CC[C@H](N(C)C)CC3)nc21 [Example 229, N-(4-(2-(((1r,4r)-4-(Dimethylamino)cyclohexyl)amino)-8-isopropyl-7-oxo-7,8-dihydropyrido[2,3-d]pyrimidin-6-yl)-2-fluorophenyl)-3,3-difluorobutane-1-sulfonamide] | 0.3
14 | CC(C)n1c(=O)c(-c2ccc(NS(=O)(=O)Cc3ccccc3)nc2)nc2cnc(N[C@@H]3CNC[C@@H](F)C3)nc21 [Example 236, N-[5-[2-[[(3S,5S)-5-fluoro-3-piperidyl]amino]-8-isopropyl-7-oxo-pteridin-6-yl]-2-pyridyl]-1-phenyl-methanesulfonamide] | 0.5
15 | CCC(C)n1c(=O)c(-c2ccc(NS(=O)(=O)Cc3ccccc3F)c(F)c2)cc2cnc(N[C@@H]3CNC[C@@H](F)C3)nc21 (single isomer, unassigned) [Compound 202B, hydrochloride] | 0.26
16 | CC(C)n1c(=O)c(-c2ccc(NS(=O)(=O)Cc3ccccc3)c(F)c2F)nc2cnc(N[C@@H]3CNC[C@@H](F)C3)nc21 [Compound 43, N-(2,3-Difluoro-4-(2-(((3S,5S)-5-fluoropiperidin-3-yl)amino)-8-isopropyl-7-oxo-7,8-dihydropteridin-6-yl)phenyl)-1-phenylmethanesulfonamide] | 0.71
17 | CC(C)n1c(=O)c(-c2cc(F)c(NS(=O)(=O)CCC(F)(F)F)c(F)c2F)cc2cnc(N[C@H]3CC[C@H](N(C)C)CC3)nc21 [Compound 25, N-(4-(2-(((1r,4r)-4-(Dimethylamino)cyclohexyl)amino)-8-isopropyl-7-oxo-7,8-dihydropyrido[2,3-d]pyrimidin-6-yl)-2,3,6-trifluorophenyl)-3,3,3-trifluoropropane-1-sulfonamide] | 0.33
18 | CC(C)n1c(=O)c(-c2ccc(NS(=O)(=O)CCC(F)(F)F)c(F)c2)cc2cnc(NC3CCC(N(C)C)C(O)C3)nc21 (stereo not drawn) [Compound 226, N-(4-(2-((4-(dimethylamino)-3-hydroxycyclohexyl)amino)-8-isopropyl-7-oxo-7,8-dihydropyrido[2,3-d]pyrimidin-6-yl)-2-fluorophenyl)-3,3,3-trifluoropropane-1-sulfonamide] | 0.3
19 | CC(C)n1c(=O)c(-c2ccc(NS(=O)(=O)Cc3ccc(C#N)cc3)c(F)c2)nc2cnc(N[C@@H]3CNC[C@@H](F)C3)nc21 [Compound 81, 1-(4-Cyanophenyl)-N-[2-fluoro-4-[2-[[(3S,5S)-5-fluoro-3-piperidyl]amino]-8-isopropyl-7-oxo-pteridin-6-yl]phenyl]methanesulfonamide] | 0.1
20 | O=c1c(-c2cc(F)c(NS(=O)(=O)Cc3ccccc3)c(F)c2F)cc2cnc(N[C@@H]3CNC[C@@H](F)C3)nc2n1C1CCC1 [Compound 28, N-(4-(8-Cyclobutyl-2-(((3S,5S)-5-fluoropiperidin-3-yl)amino)-7-oxo-7,8-dihydropyrido[2,3-d]pyrimidin-6-yl)-2,3,6-trifluorophenyl)-1-phenylmethanesulfonamide] | 0.19
21 | CC(C)n1c(=O)c(-c2ccc(NS(=O)(=O)CC3(C(C)(F)F)CC3)c(F)c2)nc2cnc(N[C@H]3CC[C@H](N(C)C)CC3)nc21 [Example 258, 1-[1-(1,1-Difluoroethyl)cyclopropyl]-N-[4-[2-[[4-(dimethylamino)cyclohexyl]amino]-8-isopropyl-7-oxo-pteridin-6-yl]-2-fluoro-phenyl]methanesulfonamide] | 0.2
22 | CC(C)n1c(=O)c(-c2ccc(NS(=O)(=O)CCN3CC(F)(F)C3)c(F)c2)nc2cnc(N[C@H]3CC[C@H](N(C)C)CC3)nc21 [Compound 182, 2-(3,3-Difluoroazetidin-1-yl)-N-(4-(2-(((1r,4r)-4-(dimethylamino)cyclohexyl)amino)-8-isopropyl-7-oxo-7,8-dihydropteridin-6-yl)-2-fluorophenyl)ethane-1-sulfonamide] | 0.87
23 | CC(C)n1c(=O)c(-c2ccc(NS(=O)(=O)CC3CCC3(F)F)c(F)c2)nc2cnc(N[C@H]3CC[C@H](N(C)C)CC3)nc21 (mixture of isomers) [Example 263, 1-(2,2-Difluorocyclobutyl)-N-[4-[2-[[4-(dimethylamino)cyclohexyl]amino]-8-isopropyl-7-oxo-pteridin-6-yl]-2-fluoro-phenyl]methanesulfonamide] | 0.1
24 | CC(C)n1c(=O)c(-c2cc(F)c(NS(=O)(=O)c3ccccc3Cl)c(F)c2F)cc2cnc(N[C@@H]3CNC[C@@H](F)C3)nc21 [Compound 61, 2-Chloro-N-(2,3,6-trifluoro-4-(2-(((3S,5S)-5-fluoropiperidin-3-yl)amino)-8-isopropyl-7-oxo-7,8-dihydropyrido[2,3-d]pyrimidin-6-yl)phenyl)benzenesulfonamide hydrochloride] | 0.31
